According to patent US20180177749A1, “USE OF CYP EXPRESSION TO DIRECT THERAPEUTIC INTERVENTION IN CANCER” (REGENTS OF THE UNIVERSITY OF MINNESOTA, priority 2016, published 2018):
Like-named read-outs stand apart in the source and are kept apart here.

Columns and labels:
[1] = target: T1, CYP2C8 (Homo sapiens, UniProt P10632); experiment: Recombinant microsomal CYP-mediated EET biosynthesis (CYP2C8 Supersomes); assay type: biochemical; set-up: host or cells: insect cells (microsomes)
T1 sequence (P10632 1-490): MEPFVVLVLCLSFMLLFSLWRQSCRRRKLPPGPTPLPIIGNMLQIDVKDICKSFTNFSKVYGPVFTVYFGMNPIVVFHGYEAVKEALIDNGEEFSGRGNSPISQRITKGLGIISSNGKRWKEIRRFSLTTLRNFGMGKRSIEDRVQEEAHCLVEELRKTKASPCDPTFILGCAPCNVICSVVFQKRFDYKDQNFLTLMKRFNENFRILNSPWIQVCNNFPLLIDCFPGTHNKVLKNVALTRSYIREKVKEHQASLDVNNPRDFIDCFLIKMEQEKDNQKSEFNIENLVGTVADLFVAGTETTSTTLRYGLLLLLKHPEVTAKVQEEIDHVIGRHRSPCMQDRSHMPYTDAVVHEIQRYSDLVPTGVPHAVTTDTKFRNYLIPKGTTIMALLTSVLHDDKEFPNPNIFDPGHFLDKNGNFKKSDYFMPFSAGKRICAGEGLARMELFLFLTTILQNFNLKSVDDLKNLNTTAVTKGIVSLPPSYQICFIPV
Description: Samples were submitted to liquid chromatography-electrospray ionization/multiple reaction monitoring/mass spectrometry (LC-ESI/MRM/MS) analysis in a Thermo Electron Quantum Discovery Max triple quadrupole mass spectrometer (Thermo Finnigan, San Jose, Calif.) coupled with an Agilent 1100 HPLC (Santa Clara, Calif.), using argon as the collision gas. Negative ion monitoring was performed at the following diagnostic product ions: 319 m/z→155 m/z for 8,9-EET; 319 m/z→179 m/z for 11,12-EET; 319 m/z→219 m/z for 14,15-EET; 339 m/z→163 m/z for 8,9-[13C20]EET; 339 m/z→233 m/z for 11,12-[13C20]EET; and 339 m/z→259 m/z for 14,15-[^13C20]EET. Base-line resolution of EET regioisomers was achieved on a Phenomenex Luna C18 (2) reverse phase capillary column (250×0.5 mm, 5-μm particles) using the following mobile phase combinations: isocratic 5% B for 5 min, gradient 5-70% B for 5 min, hold at 70% for 30 min and then 95% for 10 min; A: 0.01% acetic acid in water, B: 0.01% acetic acid in acetonitrile; […] flow rate. A standard curve was obtained by linear regression of the peak area ratio of authentic EET regioisomers against internal standards. The amount of EETs in samples was calculated according to the standard curve. The (±)-5,6-EET regioisomer was not measured because it undergoes rapid internal degradation.
CYP3A4 or 2C8 Supersomes™ (BD Biosciences) were incubated at 37° C. for 30 min in the presence of AA (5 μM) in […] Tris-HCl, pH 7.4, containing 1 mm EDTA and 1 mm NADPH. Reactions were terminated by adding methylene chloride (0.5 ml). Samples were centrifuged at 3,000 rpm for 10 min and 150 μl of the organic phases were evaporated under nitrogen. […] Reaction extracts were chromatographed under the conditions described above, and ions of 319 m/z, corresponding to AA monooxygenation products, were selectively monitored in negative mode. Concentrations of EETs generated by CYP Supersomes™ were calculated by linear regression against standard curve generated with EET standards.

[2] = system: MDA-MB-435/LCC6; experiment: Cell growth inhibition, MDA-MB-435/LCC6; assay type: cell-based; conditions: MDA-MB-435/LCC6, Triple negative
[3] = system: MCF-7 xenograft
Description: 17-β-estradiol (E2) was given in drinking water at 1 μM beginning the day of tumor implantation. […] Tumors were collected from each mouse after sacrifice and endpoint tumor weights were measured.
N=20 mice per arm for each study; error bars represent SEM.
In the HBB dose optimization model, mammary fat pad injection was performed with the MCF-7 cell line as described above, and tumors were allowed to grow until an average tumor volume of 50 mm^3. Mice were randomized, and tumor growth was monitored. Estradiol (1 μM) was present in the drinking water as above. Cremophor was administered weekly in the vehicle and HBB groups so that paclitaxel could be used in subsequent chemotherapy synergy studies (unpublished data). Mice were dosed at 6 mg/kg/day ip 4 days of 7 with no more than 2 consecutive days dosing and weighed daily. […] Tumors were harvested at the endpoint of the study following sacrifice by isoflurane anesthesia followed by cervical dislocation. Organs were harvested for histopathological assay of end organ toxicity.

[4] = Plasma concentration after ip dosing; assay type: in vivo, mice; conditions: 1 hour after the daily dose, 4 mg/kg/day ip
[5] = system: MCF-10A; experiment: Cell growth inhibition, MCF-10A non-transformed breast cell line; assay type: cell-based; conditions: Homo sapiens, ER−[PR−]
[6] = system: MDA-MB-231 cells; experiment: Measurement of OCR and ECAR, MDA-MB-231; assay type: cell-based, human; conditions: t-AUCB 2.5, 5 μM, HBB 20, 40 μM
Description: Cells were maintained in growth medium consisting of 10% FBS at 37° C. with 5% CO2 and seeded at 100,000 cells per well in XF24-well cell culture microplates (Seahorse Bioscience, North Billirica, Mass.). Concentrated stocks of HBB were prepared in DMSO. HBB was diluted to 10× working concentration in XF assay medium (a non-buffered medium including 2 mM L-glutamine but no sodium bicarbonate (buffering agent), glucose, or sodium pyruvate). Assays were performed in the XF Extracellular Flux Analyzer (Seahorse Bioscience that measures uptake and excretion of metabolic end products in real time). Oxygen consumption rate (OCR) and extracellular acidification rate (ECAR) were measured using an XF Assay Kit. OCR is reported in pmoles/minute and ECAR in mpH/minute. Before analysis, the cells were switched from culture medium to XF assay medium. After baseline measurements, 75 μl of HBB prepared in assay medium was injected into each well to reach final working concentrations. After addition of HBB, OCR and ECAR were measured at 18-minute intervals. […] There were 6 replicates for the studies of the 3-18 and 4-14 cell lines.

[7] = target: CYP3A4 (Δ3-22) (Homo sapiens, UniProt P08684); experiment: Spectral binding to soluble truncated CYP3A4; conditions: soluble truncated CYP3A4Δ3-22; read-out: spectral dissociation constant (Ks)
Sequence of CYP3A4 (Δ3-22) (P08684 with tags, fused parts or gaps): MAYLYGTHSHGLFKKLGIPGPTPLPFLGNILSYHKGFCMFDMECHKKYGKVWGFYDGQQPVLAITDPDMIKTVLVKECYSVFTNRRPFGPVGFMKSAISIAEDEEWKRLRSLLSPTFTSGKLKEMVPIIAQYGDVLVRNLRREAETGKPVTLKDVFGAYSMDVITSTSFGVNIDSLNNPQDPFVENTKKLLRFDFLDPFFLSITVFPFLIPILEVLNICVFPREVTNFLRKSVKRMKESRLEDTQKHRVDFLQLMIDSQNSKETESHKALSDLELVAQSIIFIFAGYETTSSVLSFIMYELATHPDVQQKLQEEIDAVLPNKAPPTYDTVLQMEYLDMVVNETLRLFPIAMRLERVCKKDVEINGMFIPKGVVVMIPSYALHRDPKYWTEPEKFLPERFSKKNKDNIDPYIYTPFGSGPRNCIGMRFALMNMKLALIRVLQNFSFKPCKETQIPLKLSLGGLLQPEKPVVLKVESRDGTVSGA

In the case of `CCCCCCNC(=N)NC(=N)NCc1ccccc1` [HBB, N1-hexyl-N5-benzyl-biguanide], the IC50 ([1]; read-out: IC50, CYP2C8 synthesis of (±)-8,9-EET) is reported as 65 µM, the IC50 ([1]; read-out: IC50, CYP2C8 synthesis of (±)-11,12-EET) is reported as 50 µM and the IC50 ([1]; read-out: IC50, CYP2C8 synthesis of (±)-14,15-EET) is reported as 45 µM. For the same molecule, the IC50 [2] was 12.5 µM, the “end point tumor weights lower than control” value ([3]; 4 mg/kg/day ip) was 34% and the tumor growth ([3]; 4 mg/kg/day ip) was “slower growth”. The “end point tumor weight (mean±SEM)” value ([3]; 4 mg/kg/day ip, n=19) was 220 ± 35 mg, the tumor growth ([3]; 6 mg/kg ip 4 of 7 days (24 mg/kg/week), from 50 mm^3) was “significant reduction of tumor growth” and the “end point tumor weights lower than PBS group” value ([3]; 24 mg/kg/week ip) was 48%. The “end point tumor weight (mean±SEM)” value ([3]; 24 mg/kg/week ip, n=13) was 127 ± 16 mg, the “weight decline vs. control” value ([3]; mouse, in vivo, ip, 6 mg/kg/day) was over 5% and the plasma concentration [4] was 530 nM. The IC50 [5] was 20.5 µM, the “extracellular acidification rate (ECAR)” value [6] was “least inhibition of ECAR” and the “oxygen consumption rate (OCR)” value [6] was “significant vs. vehicle”. It also gave a Kd [7] of 164 µM.
